The target in the assay is human PDE10A2 (Homo sapiens (Human), UniProt Q9Y233). The assay is described as follows: PDE10 fluorescence polarization (IMAP FP) inhibition assay. Type of assay: biochemical. The note with it: human PDE10A2 from transfected AD293 cells; FAM-labeled cAMP 50 nM; apparent inhibition constant; read-out: PDE10A Ki. A digest of the protocol:
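Cytoplasmic lysate of AD293 cells transiently expressing human PDE10A2 (enzyme level giving 20% conversion) incubated with 50 nM FAM-cAMP in pH 7.2 Tris/MgCl2 buffer, 30 min at room temperature. IMAP binding solution added, FP read after ≥1 h; 10-point 3-fold compound titrations fitted to a four-parameter equation.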

The structures appear in SMILES notation.

human PDE10A2, sequence (Q9Y233 267-1055): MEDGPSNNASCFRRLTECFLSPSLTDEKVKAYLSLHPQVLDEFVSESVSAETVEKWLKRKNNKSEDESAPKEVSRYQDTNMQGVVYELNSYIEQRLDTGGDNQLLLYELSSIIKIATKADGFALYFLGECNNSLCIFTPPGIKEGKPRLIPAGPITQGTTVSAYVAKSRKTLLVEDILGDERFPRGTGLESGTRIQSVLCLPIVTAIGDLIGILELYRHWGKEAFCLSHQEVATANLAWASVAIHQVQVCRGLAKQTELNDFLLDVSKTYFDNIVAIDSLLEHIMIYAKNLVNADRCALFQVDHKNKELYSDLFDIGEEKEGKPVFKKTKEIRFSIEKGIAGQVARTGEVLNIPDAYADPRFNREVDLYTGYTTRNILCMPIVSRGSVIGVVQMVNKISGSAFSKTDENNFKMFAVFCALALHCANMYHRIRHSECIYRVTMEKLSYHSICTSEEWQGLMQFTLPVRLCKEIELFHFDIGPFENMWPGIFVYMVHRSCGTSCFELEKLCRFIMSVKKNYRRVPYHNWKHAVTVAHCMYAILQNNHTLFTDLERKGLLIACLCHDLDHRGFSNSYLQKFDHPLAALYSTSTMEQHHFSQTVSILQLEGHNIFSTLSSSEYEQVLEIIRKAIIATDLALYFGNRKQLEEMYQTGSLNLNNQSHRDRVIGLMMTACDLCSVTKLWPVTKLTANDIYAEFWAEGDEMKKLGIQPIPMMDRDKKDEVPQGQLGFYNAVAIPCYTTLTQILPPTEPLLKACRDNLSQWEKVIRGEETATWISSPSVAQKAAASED

With `CCOC(=O)c1[nH]nnc1-c1cnc(C)nc1OC[C@H]1C[C@@H]1c1ccc(OC)cn1` [Example 248, ethyl 4-(4-(((1S,2S)-2-(5-methoxypyridin-2-yl)cyclopropyl)methoxy)-2-methylpyrimidin-5-yl)-1H-1,2,3-triazole-5-carboxylate], the Ki was 14 nM.

On to `COc1ccc([C@H]2C[C@@H]2COc2nc(C)ncc2-c2nn[nH]c2CO)nc1` [Example 249, (4-(4-(((1S,2S)-2-(5-methoxypyridin-2-yl)cyclopropyl)methoxy)-2-methylpyrimidin-5-yl)-1H-1,2,3-triazol-5-yl)methanol], for which the Ki was found to be 15.7 nM.

For the molecule `COc1ccc([C@H]2C[C@@H]2COc2nc(C)ncc2-c2ccc(-c3ncon3)cc2)nc1` [Example 250, 3-(4-(4-(((1S,2S)-2-(5-methoxypyridin-2-yl)cyclopropyl)methoxy)-2-methylpyrimidin-5-yl)phenyl)-1,2,4-oxadiazole], the Ki was 1.16 nM.

For `COc1ccc([C@H]2C[C@@H]2COc2nc(C)ncc2-c2ccc(-c3noc(C)n3)cc2)nc1` [Example 251, 3-(4-(4-(((1S,2S)-2-(5-methoxypyridin-2-yl)cyclopropyl)methoxy)-2-methylpyrimidin-5-yl)phenyl)-5-methyl-1,2,4-oxadiazole], the Ki was 1.97 nM.

In the case of `COc1ccc([C@H]2C[C@@H]2COc2nc(C)ncc2-c2ccc(-c3noc(CO)n3)cc2)nc1` [Example 252, (3-(4-(4-(((1S,2S)-2-(5-methoxypyridin-2-yl)cyclopropyl)methoxy)-2-methylpyrimidin-5-yl)phenyl)-1,2,4-oxadiazol-5-yl)methanol], the Ki came to 2.03 nM.

Take `COc1ccc([C@H]2C[C@@H]2COc2nc(C)ncc2-c2ccc(-c3nc(C)no3)cc2)nc1` [Example 253, 5-(4-(4-(((1S,2S)-2-(5-methoxypyridin-2-yl)cyclopropyl)methoxy)-2-methylpyrimidin-5-yl)phenyl)-3-methyl-1,2,4-oxadiazole]: the Ki turned out to be 3.02 nM.

As for `COc1ccc([C@H]2C[C@@H]2COc2nc(C)ncc2-c2ncno2)nc1` [Example 254, 5-(4-(((1S,2S)-2-(5-methoxypyridin-2-yl)cyclopropyl)methoxy)-2-methylpyrimidin-5-yl)-1,2,4-oxadiazole], the Ki stood at 22.9 nM.

For `COc1ccc([C@H]2C[C@@H]2COc2nc(C)ncc2-c2cnco2)nc1` [Example 255, 5-(4-(((1S,2S)-2-(5-methoxypyridin-2-yl)cyclopropyl)methoxy)-2-methylpyrimidin-5-yl)oxazole], the Ki came out at 7.7 nM.

Consider `COc1ccc([C@H]2C[C@@H]2COc2nc(C)ncc2-c2noc(CO)n2)nc1` [Example 256, (3-(4-(((1S,2S)-2-(5-methoxypyridin-2-yl)cyclopropyl)methoxy)-2-methylpyrimidin-5-yl)-1,2,4-oxadiazol-5-yl)methanol], for which the Ki stood at 29.9 nM.

`COc1ccc([C@H]2C[C@@H]2COc2nc(C)ncc2-c2ocnc2C)nc1` [Example 257, 5-(4-(((1S,2S)-2-(5-methoxypyridin-2-yl)cyclopropyl)methoxy)-2-methylpyrimidin-5-yl)-4-methyloxazole]: the Ki was determined as 0.91 nM.

For the origin of these results see patent publication US9663513B2, “Pyrimidine PDE10 inhibitors” (Merck Sharp & Dohme Corp., priority 2012, dated 2017).
